From article PMC5224920, “Assessing the mechanism and therapeutic potential of modulators of the human Mediator complex-associated protein kinases” (eLife, 2016)
Like-named read-outs stand apart in the source and are kept apart here.

Legend:
HT29 = test: 96 hour proliferation GI50, HT29; conditions: Homo sapiens, HT-29, 96 h, read-out: 96 hour GI50
[1] = system: p-STAT1^SER727 in HCT116 tumor xenografts; test: p-STAT1 SER727 level in HCT116 xenografts (pharmacodynamics); format: in vivo, human; conditions: single doses
Rat PK = format: in vivo
Dog PK = format: in vivo; conditions: for Dog PK Cl / Dog PK Vd: 0.2mg/kg i.v.
COLO205 [2] = test: 96 hour proliferation GI50, COLO205; conditions: Homo sapiens, COLO 205, 96 h, read-out: 96 hour GI50
p-STAT1^SER727 = test: Inhibition of STAT1 SER727 phosphorylation in cells (target-engagement biomarker)
SW948 = test: 96 hour proliferation GI50, SW948; conditions: Homo sapiens, SW948, 96 h, read-out: 96 hour GI50
Wistar rats = test: 14-day oral tolerability study in rats; format: in vivo; conditions: for Target organs: Rat
From the text: Animals were culled 24 hr after the last dose. Additional satellite animals for toxicokinetic evaluations were included.

LS174T [3] = test: 24 hour TCF/LEF reporter assay, LS174T; format: cell-based; conditions: Homo sapiens, read-out: 24 hour TCF/LEF Reporter assay IC50
LS180 [4] = test: 96 hour proliferation GI50, LS180; conditions: Homo sapiens, LS180, 96 h, read-out: 96 hour GI50
SW620 = test: 96 hour proliferation GI50, SW620; conditions: Homo sapiens, SW-620, 96 h, read-out: 96 hour GI50
Mouse PK = format: in vivo
[5] = system: SW620 human colorectal cancer xenografts; test: SW620 human colorectal cancer xenograft, tumor growth inhibition; format: in vivo
DLD1 [6] = test: 96 hour proliferation GI50, DLD1; conditions: Homo sapiens, DLD-1, 96 h, read-out: 96 hour GI50
LS174T [7] = test: 96 hour proliferation GI50, LS174T; conditions: Homo sapiens, read-out: 96 hour GI50
LS174T [8] = test: LS174T basal WNT-pathway luciferase reporter
Beagle dogs = test: 14-day oral tolerability study in dogs; conditions: for Target organs: Dog; for Fold of efficacious dose; 10 mg/kg / Fold of efficacious dose; 30 mg/kg: CMPD 4, dog 20 mg/kg
LS513 = test: 96 hour proliferation GI50, LS513; conditions: Homo sapiens, LS-513, 96 h, read-out: 96 hour GI50
[9] = system: LS1034 colorectal cancer xenografts; test: LS1034 colorectal cancer xenograft, tumor growth inhibition; format: in vivo, human
RKO [10] = test: 96 hour proliferation GI50, RKO; conditions: Homo sapiens, read-out: 96 hour GI50
DLD1 [11] = test: 24 hour TCF/LEF reporter assay, DLD1; format: cell-based; conditions: Homo sapiens, DLD-1, 24 h, read-out: 24 hour TCF/LEF Reporter assay IC50
COLO205 [12] = test: 24 hour TCF/LEF reporter assay, COLO205; format: cell-based; conditions: Homo sapiens, COLO 205, 24 h, read-out: 24 hour TCF/LEF Reporter assay IC50
LS180 [13] = test: 24 hour TCF/LEF reporter assay, LS180; format: cell-based; conditions: Homo sapiens, LS180, 24 h, read-out: 24 hour TCF/LEF Reporter assay IC50
MV-4-11 AML xenograft = test: MV-4-11 AML subcutaneous xenograft; format: in vivo, human
RKO [14] = test: 24 hour reporter assay, RKO negative control (EEF1A1 promoter-reporter); format: cell-based; conditions: Homo sapiens, RKO, read-out: 24 hour TCF/LEF Reporter assay IC50
SW837 [15] = test: 24 hour TCF/LEF reporter assay, SW837; format: cell-based; conditions: Homo sapiens, SW837, 24 h, read-out: 24 hour TCF/LEF Reporter assay IC50
[16] = system: p-STAT1^SER727 in SW620 tumor xenografts; test: p-STAT1 SER727 level in SW620 xenografts (pharmacodynamics); format: in vivo, human
Description: As with 3, 10 mg/kg of 4 inhibited the pathway biomarker for 6 hr, but was not sufficient for antitumor activity in SW620 xenografts (Figure 2A and Figure 2—source data 1).

SW837 [17] = test: 96 hour proliferation GI50, SW837; conditions: Homo sapiens, SW837, 96 h, read-out: 96 hour GI50
CDK8 = CDK8 (Homo sapiens, UniProt P49336); test: CDK8 binding (Lanthascreen binding competition / reporter displacement assay)
[18] = low dose 5 mg/kg daily oral for 14 days

Sequence of CDK8 (P49336 whole entry): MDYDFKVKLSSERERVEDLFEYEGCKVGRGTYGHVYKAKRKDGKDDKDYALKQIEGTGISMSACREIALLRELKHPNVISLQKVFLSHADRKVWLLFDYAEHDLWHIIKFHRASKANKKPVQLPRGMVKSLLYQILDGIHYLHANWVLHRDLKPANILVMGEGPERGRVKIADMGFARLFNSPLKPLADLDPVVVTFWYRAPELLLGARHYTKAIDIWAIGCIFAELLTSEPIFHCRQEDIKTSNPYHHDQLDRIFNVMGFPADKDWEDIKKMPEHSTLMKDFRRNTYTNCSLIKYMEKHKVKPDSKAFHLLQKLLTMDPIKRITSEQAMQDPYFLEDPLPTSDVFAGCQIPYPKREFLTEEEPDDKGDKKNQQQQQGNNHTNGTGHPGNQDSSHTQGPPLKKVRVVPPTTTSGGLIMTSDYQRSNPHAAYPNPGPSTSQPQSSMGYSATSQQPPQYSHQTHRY
Sequence of CDK8 (P24863 whole entry partner): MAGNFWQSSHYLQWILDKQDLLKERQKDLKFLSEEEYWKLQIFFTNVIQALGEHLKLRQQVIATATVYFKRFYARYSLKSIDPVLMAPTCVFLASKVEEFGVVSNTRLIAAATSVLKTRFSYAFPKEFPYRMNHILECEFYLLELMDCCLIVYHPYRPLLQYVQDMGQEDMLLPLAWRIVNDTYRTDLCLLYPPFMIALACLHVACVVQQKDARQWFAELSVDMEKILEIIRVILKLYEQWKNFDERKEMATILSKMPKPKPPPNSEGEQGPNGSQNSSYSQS

Cn1ncc2cc(-c3cnc(N)c(Cl)c3N3CCC4(CCNC4=O)CC3)ccc21 [CMPD 3]
GI50 (HT29): > 30000 nM
Dose required for maximal inhibition of STAT1^SER727 phosphorylation [1]: ≥ 5 mg/kg
Rat PK Cl (Rat PK; 0.2mg/kg i.v.): 24.8 mL/min/kg
Rat PK Vd (Rat PK; 0.2mg/kg i.v.): 1.99 L/kg
Dog PK Cl (Dog PK): 17.8 mL/min/kg
Dog PK Vd (Dog PK): 1.4 L/kg
GI50 (COLO205 [2]): > 30000 nM
IC50 (p-STAT1^SER727; read-out: p-STAT1^SER727 IC50, mean ± s.d. or *± range): 22 ± 12 nM
IC50 (p-STAT1^SER727; read-out: p-STAT1^SER727 IC50; mean ± s.d. or *± range): 25.5 ± 12 nM
GI50 (SW948): > 30000 nM
Target organs (Wistar rats; high dose 20 mg/kg daily oral for 14 days (CMPD 3)): Bone, bone marrow, heart, liver, lung, lymph nodes, pancreas, reproductive tract (m and f), spleen, thymus.
Target organs (Wistar rats; [18]): Bone, bone, marrow, heart, liver, lung, lymph nodes, pancreas, reproductive tract (m), spleen, thymus.
Target organs (Wistar rats; mid dose 10 mg/kg daily oral for 14 days (CMPD 3)): Bone, bone marrow, heart, liver, lung, lymph nodes, pancreas, reproductive tract (m and f), spleen, thymus.
IC50 (LS174T [3]): 39 nM
GI50 (LS180 [4]): 6670 nM
GI50 (SW620): 1860 nM
Mouse PK Cl (Mouse PK; 0.2mg/kg i.v.): 10.2 mL/min/kg
Mouse PK Vd (Mouse PK; 0.2mg/kg i.v.): 0.63 L/kg
TGI ([5]; 5 x 1 mg/kg x doses/day, day 14, nr = no response, P ns): nr
TGI ([5]; 10 x 1 mg/kg x doses/day, day 14, P ns): 33%
TGI ([5]; 30 x 1 mg/kg x doses/day, day 14, 8 mice, P <0.05): 48%
TGI ([5]; 30 x 1b mg/kg x doses/day, day 14, 9 mice, P <0.01): 44%
TGI ([5]; 30 x 2 (5/7 d) and x 1 (2/7 d)e mg/kg x doses/day, day 14, P <0.01): 44%
GI50 (DLD1 [6]): > 30000 nM
GI50 (LS174T [7]): > 30000 nM
IC50 (LS174T [8]; Homo sapiens, LS174T, read-out: LS174T IC50): 33.3 ± 12.8 nM
Target organs (Beagle dogs; [18]): Bone marrow, gastrointestinal mucosa, heart, lymphatic system
GI50 (LS513): > 30000 nM
TGI ([9]; 30 x 1 (5/7 d) mg/kg x doses/day, day 21, P <0.001): 55%
GI50 (RKO [10]): > 30000 nM
IC50 (DLD1 [11]): 173 nM
IC50 (COLO205 [12]): 15 nM
IC50 (LS180 [13]): 28 nM
TGI (MV-4-11 AML xenograft; 10 mg/kg po qd monotherapy): 100%
IC50 (RKO [14]): > 30000 nM
IC50 (SW837 [15]): 14 nM
Time biomarker (p-STAT1^SER727) inhibition maintained ([16]; SW620 tumor xenografts, single treatment with 30 mg/kg): approximately 10 hr
GI50 (SW837 [17]): 3110 nM

Cc1n[nH]c2ncc(C(=O)N3CCC[C@H]3c3ccc(Cl)cc3)cc12 [CMPD 4]
GI50 (HT29): > 30000 nM
Rat PK Vd (Rat PK; 0.2mg/kg i.v.): 1.62 L/kg
Rat PK F (Rat PK; 0.2mg/kg i.v. or 0.5mg/kg p.o.): 66%
clearance (Rat PK; male, Wistar, rat, in vivo, iv, 0.2mg/kg i.v., read-out: Rat PK Cl (converted)): 25 mL/min/kg
Dog PK Cl (Dog PK): 22.5 mL/min/kg
Dog PK Vd (Dog PK): 1.47 L/kg
Dog PK F (Dog PK; 0.2mg/kg i.v. or 0.5mg/kg p.o.): 39%
GI50 (COLO205 [2]): > 30000 nM
IC50 (p-STAT1^SER727; read-out: p-STAT1^SER727 IC50): 7.7 ± 2.2 nM
GI50 (SW948): > 30000 nM
Fold of efficacious dose; 10 mg/kg (Wistar rats; CMPD 4, rat 10 mg/kg, female): ~2.4
Fold of efficacious dose; 30 mg/kg (Wistar rats; CMPD 4, rat 10 mg/kg, female): ~0.8
Fold of efficacious dose; 10 mg/kg (Wistar rats; CMPD 4, rat 10 mg/kg, male): ~0.9
Fold of efficacious dose; 30 mg/kg (Wistar rats; CMPD 4, rat 10 mg/kg, male): ~0.3
Fold of efficacious dose; 10 mg/kg (Wistar rats; CMPD 4, rat 20 mg/kg, female): ~5.7
Fold of efficacious dose; 30 mg/kg (Wistar rats; CMPD 4, rat 20 mg/kg, female): ~1.9
Fold of efficacious dose; 10 mg/kg (Wistar rats; CMPD 4, rat 20 mg/kg, male): ~3.9
Fold of efficacious dose; 30 mg/kg (Wistar rats; CMPD 4, rat 20 mg/kg, male): ~1.3
Fold of efficacious dose; 10 mg/kg (Wistar rats; CMPD 4, rat 60 mg/kg, female): ~23.1
Fold of efficacious dose; 30 mg/kg (Wistar rats; CMPD 4, rat 60 mg/kg, female): ~7.7
Fold of efficacious dose; 10 mg/kg (Wistar rats; CMPD 4, rat 60 mg/kg, male): ~10.8
Fold of efficacious dose; 30 mg/kg (Wistar rats; CMPD 4, rat 60 mg/kg, male): ~3.6
Target organs (Wistar rats; high dose 60 mg/kg daily oral for 14 days): Bone, bone marrow, brain, heart, intestines, liver, lung, lymph nodes, mammary gland, pancreas, reproductive tract (m and f), skin, spleen, stomach, thymus
Target organs (Wistar rats; low dose 10 mg/kg daily oral for 14 days (CMPD 4)): Bone, bone marrow, intestines, liver, lung, lymph nodes, mammary gland, pancreas, reproductive tract (m and f), skin, spleen, stomach, thymus.
Target organs (Wistar rats; mid dose 20 mg/kg daily oral for 14 days (CMPD 4)): Bone, bone marrow, heart, intestines, liver, lung, lymph nodes, mammary gland, pancreas, reproductive tract (m and f), skin, spleen, stomach, thymus
IC50 (LS174T [3]): 31 nM
GI50 (LS180 [4]): > 30000 nM
GI50 (SW620): > 30000 nM
Mouse PK Cl (Mouse PK; 0.2mg/kg i.v.): 22.8 mL/min/kg
Mouse PK F (Mouse PK; 0.2mg/kg i.v. or 0.5mg/kg p.o.): 25%
Vd (Mouse PK; female, NMRI, mouse, in vivo, iv, 0.2mg/kg i.v.): 0.59 L/kg
TGI ([5]; 5 x 2 mg/kg x doses/day, day 13, nr = no response, P ns): nr
TGI ([5]; 10 x 1 mg/kg x doses/day, day 13, nr = no response, P ns): nr
TGI ([5]; 50 x 2b mg/kg x doses/day, day 16, P ns): 51%
TGI ([5]; 100 x 1 mg/kg x doses/day, day 16, P ns): 43%
GI50 (DLD1 [6]): > 30000 nM
GI50 (LS174T [7]): > 30000 nM
IC50 (LS174T [8]; Homo sapiens, LS174T, read-out: LS174T IC50, basal WNT-pathway luciferase reporter, mean ± s.d. or *± range): 29.5 ± 9.5 nM
IC50 (LS174T [8]; read-out: LS174T IC50, basal WNT-pathway luciferase reporter, mean ± s.d. or *± range): 36.2 ± 9.5 nM
Fold of efficacious dose; 10 mg/kg (Beagle dogs; female): ~46
Fold of efficacious dose; 30 mg/kg (Beagle dogs; female): ~15
Fold of efficacious dose; 10 mg/kg (Beagle dogs; male): ~22
Fold of efficacious dose; 30 mg/kg (Beagle dogs; male): ~7
Target organs (Beagle dogs; low dose 20 mg/kg daily oral for 14 days): Bone marrow, heart, Intestines, lymphatic system
GI50 (LS513): > 30000 nM
TGI ([9]; 50 x 2 mg/kg x doses/day, day 22, P ns): 52%
TGI ([9]; 100 x 1 mg/kg x doses/day, day 22, P ns): 30%
GI50 (RKO [10]): > 30000 nM
IC50 (DLD1 [11]): 97 nM
IC50 (COLO205 [12]): 9 nM
IC50 (LS180 [13]): 31 nM
Target inhibition by p-STAT1^SER727 (MV-4-11 AML xenograft; 2 hr post-treatment): near maximal target inhibition
IC50 (RKO [14]): > 30000 nM
IC50 (SW837 [15]): 8 nM
Time pathway biomarker (p-STAT1^SER727) inhibited ([16]; SW620 xenografts, 10 mg/kg): 6 h
IC50 (CDK8): 4.4 ± 0.3 nM
GI50 (SW837 [17]): > 30000 nM
